From ChEMBL document CHEMBL1201862, “PubChem BioAssay data set” (2004)
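Test compounds were applied to cells in 96-well plates for 48 hours at 5 doses. GI50 = concentration required for 50% inhibition of growth.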 The source made the active and inactive calls. No stated cut-off is given here; in the data, active = GI50 up to about 1.1 µM and inactive = higher.

How the values were obtained:
Experiment in all cases: NCI tumour cell line growth inhibition, 48 h
[1] = test system: HCC 2998
[2] = test system: COLO 205
[3] = test system: SF-295
[4] = test system: U-251
[5] = test system: CAKI-1
[6] = test system: SW-620
[7] = test system: K562
[8] = test system: MDA-MB-231
[9] = test system: HCT-116
[10] = test system: MOLT-4
[11] = test system: TK-10
[12] = test system: RXF 393
[13] = test system: SNB-19
[14] = test system: A498
[15] = test system: Malme-3M
[16] = test system: KM12
[17] = test system: OVCAR-8
[18] = test system: 786-0
[19] = test system: NCI-H226
[20] = test system: NCI-H522

Measured: GI50

CC1(C)[C@@H](Cn2cnc3c(N)ncnc32)CC[C@@]1(C)CO
inactive: [1] 53 µM | [2] 71.9 µM | [3] 38.8 µM | [4] > 100 µM | [5] > 100 µM | [6] 82.8 µM | [7] 17.3 µM | [8] > 100 µM | [9] 44.9 µM | [10] 11.9 µM | [11] > 100 µM | [12] > 100 µM | [13] > 100 µM | [14] > 100 µM | [15] > 100 µM | [16] 27.4 µM | [17] > 100 µM | [18] > 100 µM | [19] 40.3 µM | [20] 41.3 µM

C[C@]12C[C@@H](c3ccccc3)Nc3ccccc3N1C(c1ccccc1)=NO2
inactive: [1] 81.3 µM | [2] 19 µM | [3] 16 µM | [4] 44.2 µM | [5] 37.1 µM | [6] 61.1 µM | [7] 35.4 µM | [8] 45.5 µM | [9] 37.9 µM | [10] 18 µM | [11] 34.4 µM | [12] 51.6 µM | [13] 89.7 µM | [14] 43.3 µM | [15] 42.9 µM | [16] 33.6 µM | [17] 36.1 µM | [18] 56.6 µM | [19] 32.4 µM | [20] 35.9 µM

CCn1c(=O)c2c3cc(OC(C)=O)ccc3oc2c2ccc(OC(C)=O)cc21
inactive: [1] 23.4 µM | [2] 20.7 µM | [3] 19.8 µM | [4] 32.6 µM | [5] 40 µM | [6] 38.4 µM | [7] 33.8 µM | [8] 48.4 µM | [9] 32.2 µM | [10] 23.6 µM | [11] 29.5 µM | [12] 37.2 µM | [13] 46.9 µM | [14] 24.8 µM | [15] 39.4 µM | [16] 40.1 µM | [17] 30.8 µM | [18] 56.1 µM | [19] 34.4 µM | [20] 39.1 µM
